Results from patent US11834663B2, “Fibrotic treatment” (Monash University, priority 2015, dated 2023).

System: Ang II-infused WT mice
Experiment: Angiotensin II infusion prevention model: systolic blood pressure (tail-cuff)
Type: in vivo, mouse
Conditions: adult WT mice, Ang II 800 ng/kg/min s.c. + HFI-419 500 ng/kg/min, 4 weeks; FIG. 1
Procedure: There are 8 different sets of in vivo experiments in this study: • A) Phenotypic characterisation of the heart and blood vessels in global IRAP knockout mice and their WT controls treated for 4 weeks with Angiotensin (Ang) II (800 ng/kg/min; s.c.) where mouse hearts and blood vessels were compared to tissue obtained from young WT and IRAP^−/− mice treated with saline. • B) Prevention of Ang II-induced changes in the cardiovascular system following IRAP inhibitor treatment. […]
All mice which underwent surgery were anaesthetized with Isoflurane (Isorrane) (5% induction and 2.5% maintenance) and an incision made in the midscapular region through which osmotic minipumps (Alzet model 2004, Alza Corp) were inserted for subcutaneous drug administration. […] Systolic blood pressure (SBP) was measured fortnightly using non-invasive tail-cuff plethysmography apparatus (MC4000 Blood Pressure Analysis System, Hatteras Instrument Inc) before drug treatment (week 0), at week 2 of treatment and end of treatment (week 4). At the end of drug treatment, body weight of mice was recorded. […]

CCOC(=O)C1=C(NC(C)=O)Oc2cc(O)ccc2C1c1cccnc1 (stereo not shown) [HFI-419]
Ang II-induced increase in systolic blood pressure: attenuates
